pIC50: −log10 of the molar value. Converted amounts (≈) assume the structure as drawn. Like-named read-outs stand apart in the source and are kept apart here.
What was measured:
[1] = biological target: Pseudomonas aeruginosa LpxC enzyme (Pseudomonas aeruginosa (strain ATCC 15692 / DSM 22644 / CIP 104116 / JCM 14847 / LMG 12228 / 1C / PRS 101 / PAO1), UniProt P47205); test: IC50 Assay, LpxC Enzyme from P. aeruginosa (PA LpxC Enzyme IC50); type: biochemical
Summary of the method: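 Product formation quantified by RapidFire HTMS after a 1 h enzyme reaction quenched with 1N HCl.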

[2] = system: Escherichia coli EC-1: VOGEL, mouse virulent; test: MIC determination (CLSI), EC-1; type: cell-based; settings: for MIC: Escherichia coli
Summary of the method: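 E. coli Vogel, a mouse-virulent strain (EC-1), was tested. MICs were set by dilution susceptibility testing per CLSI standards M7-A7/M100-S18.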

[3] = system: Klebsiella pneumoniae: Ciprofloxacin-resistant isolate, ESBL, clinical isolate (KP-3700); test: MIC determination (CLSI), KP-3700; type: cell-based
Summary of the method: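 Strain KP-3700, a clinical isolate producing extended-spectrum β-lactamases and resistant to ciprofloxacin, was tested. Minimum inhibitory concentrations determined via CLSI dilution methodology (M7-A7; M100-S18).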

[4] = system: Pseudomonas aeruginosa UI-18: Wild-type (PA-7); test: MIC determination (CLSI), PA-7; type: cell-based; settings: for MIC: Pseudomonas aeruginosa
Summary of the method: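 Wild-type P. aeruginosa UI-18 tested for minimum inhibitory concentration. Broth/agar dilution following CLSI standards (M7-A7, M100-S18).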

[5] = system: Acinetobacter baumanii/haemolyticus: Multidrug-resistant clinical isolate (AB-3167); test: MIC determination (CLSI), AB-3167; type: cell-based; settings: for MIC: Acinetobacter baumannii
Summary of the method: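 Multidrug-resistant clinical isolate AB-3167 (A. baumannii/haemolyticus) tested for minimum inhibitory concentration following CLSI dilution susceptibility standards M7-A7 and M100-S18.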

[6] = Table 3, read-out: PA LpxC enzyeme IC^50
[7] = P. aeruginosa LpxC enzyme, read-out: PA LpxC enzyeme IC50
[8] = Escherichia coli EC-1 VOGEL, mouse virulent
[9] = Pseudomonas aeruginosa UI-18 wild-type PA-7
[10] = Acinetobacter baumanii/haemolyticus multidrug-resistant clinical isolate AB-3167
[11] = Table 1, read-out: PA LpxC enzyeme IC50
[12] = Table 1, MIC, read-out: PA-7 (MIC)
[13] = Table 1, MIC, read-out: AB-3167 (MIC)
[14] = Pseudomonas aeruginosa UI-18 (PA-7)
[15] = Acinetobacter baumanii/haemolyticus AB-3167

CC(CCc1ccc(OCc2ccc(OC(F)(F)F)cc2)cc1)(C(=O)NO)S(C)(=O)=O (stereo not shown) [Example 288, N-hydroxy-2-methyl-2-(methylsulfonyl)-4-(4-{[4-(trifluoromethoxy)benzyl]oxy}phenyl)butanamide]
pIC50 [1, 6]: 8.82
MIC ([2]; read-out: EC-1 MIC): 4 µg/mL (≈ 8.67 µM)
KP-3700 MIC [3]: 8 µg/mL
MIC ([4]; Table 3, read-out: PA-7 MIC): 8 µg/mL (≈ 17.3 µM)
MIC ([5]; Table 3, read-out: AB-3167 MIC): 4 µg/mL (≈ 8.67 µM)

CC(CCc1ccc(-c2ccc3c(c2)OCO3)cc1)(C(=O)NO)S(C)(=O)=O (stereo not shown) [Example 176]
pIC50 [1, 7]: 10.52
EC-1 MIC [2, 8]: 0.5 µg/mL
KP-3700 MIC [3]: 2 µg/mL
PA-7 MIC [4, 9]: 0.5 µg/mL
AB-3167 MIC [5, 10]: 16 µg/mL

CC(CCc1ccc(-c2ccc(F)cc2)c(O)c1)(C(=O)NO)S(C)(=O)=O (stereo not shown) [Example 21, 4-(4′-Fluoro-2-hydroxybiphenyl-4-yl)-N-hydroxy-2-methyl-2-(methylsulfonyl)butanamide]
pIC50 [1, 11]: 7.81
MIC ([2]; read-out: EC-1: (MIC)): 16 µg/mL (≈ 41.9 µM)
KP-3700 MIC [3]: ≧64 mg/L
MIC [4, 12]: 16 µg/mL (≈ 41.9 µM)
MIC [5, 13]: ≥ 64 µg/mL

CC(CCc1ccc(-c2cccnc2)c(F)c1)(C(=O)NO)S(C)(=O)=O (stereo not shown) [Example 197]
pIC50 [1, 7]: 8.15
EC-1 MIC [2, 8]: ≧64 mg/L
KP-3700 MIC [3]: ≧64 mg/L
PA-7 MIC [4, 9]: 8 µg/mL
AB-3167 MIC [5, 10]: ≧64 mg/L

C[C@@](CCc1ccc(-c2ccc(OP(=O)(O)O)cc2)cc1)(C(=O)NO)S(C)(=O)=O [Example 6, 4′-[(3R)-4-(Hydroxyamino)-3-methyl-3-(methylsulfonyl)-4-oxobutyl]biphenyl-4-yl dihydrogen phosphate]
pIC50 [1, 11]: 7.06
MIC ([2]; read-out: EC-1: (MIC)): ≥ 64 µg/mL
KP-3700 MIC ([3]; Table 1, MIC): ≧64 mg/L
MIC ([4]; read-out: PA-7 (MIC)): ≥ 64 µg/mL
MIC ([5]; read-out: AB-3167 (MIC)): ≥ 64 µg/mL

CC(CCc1ccc(-c2cccc(Cl)c2)cc1)(C(=O)NO)S(C)(=O)=O (stereo not shown) [Example 88]
pIC50 [1, 7]: 9.44
EC-1 MIC [2, 8]: 1 µg/mL
KP-3700 MIC [3]: 4 µg/mL
PA-7 MIC [4, 9]: 1 µg/mL
AB-3167 MIC [5, 10]: 4 µg/mL

CC(CCc1ccc(-c2ccccc2)cc1F)(C(=O)NO)S(C)(=O)=O (stereo not shown) [Example 2, 4-(3-Fluorobiphenyl-4-yl)-N-hydroxy-2-methyl-2-(methylsulfonyl)butanamide]
pIC50 [1, 11]: 9.59
MIC ([2]; read-out: EC-1: (MIC)): 1 µg/mL (≈ 2.74 µM)
KP-3700 MIC [3]: 4 µg/mL
MIC [4, 12]: 1 µg/mL (≈ 2.74 µM)
MIC [5, 13]: 16 µg/mL (≈ 43.8 µM)

CC(CCc1ccc(-c2ccc(O)cc2)c(F)c1)(C(=O)NO)S(C)(=O)=O (stereo not shown) [Example 177]
pIC50 [1, 7]: 9.51
EC-1 MIC [2, 8]: 1 µg/mL
KP-3700 MIC [3]: 8 µg/mL
PA-7 MIC [4, 9]: 2 µg/mL
AB-3167 MIC [5, 10]: 32 µg/mL

CC(CCc1ccc(C2=CCCCC2)cc1)(C(=O)NO)S(C)(=O)=O (stereo not shown) [Example 224]
pIC50 [1, 7]: 9.36
EC-1 MIC ([2]; Escherichia coli EC-1): 4 µg/mL
KP-3700 MIC [3]: 16 µg/mL
PA-7 MIC [4, 14]: 2 µg/mL
AB-3167 MIC [5, 15]: 4 µg/mL

CC(CCc1ccc(COc2ccc(F)cc2)cc1)(C(=O)NO)S(C)(=O)=O (stereo not shown) [Example 228]
pIC50 [1, 7]: 8.48
EC-1 MIC ([2]; Escherichia coli EC-1): 8 µg/mL
KP-3700 MIC [3]: 16 µg/mL
PA-7 MIC [4, 14]: 8 µg/mL
AB-3167 MIC [5, 15]: 16 µg/mL

CC1(O)CCN(C(=O)COc2ccc(-c3ccc(CC[C@](C)(C(=O)NO)S(C)(=O)=O)cc3)cc2)CC1 [Example 222]
pIC50 [1, 7]: 9.08
EC-1 MIC ([2]; Escherichia coli EC-1): 16 µg/mL
KP-3700 MIC [3]: ≧64 mg/L
PA-7 MIC [4, 14]: 32 µg/mL
AB-3167 MIC [5, 15]: ≧64 mg/L

C[C@](CCc1ccc(-c2ccc3c(c2)OCCO3)cc1)(C(=O)NO)S(C)(=O)=O [Example 175]
pIC50 [1, 7]: 7.84
EC-1 MIC [2, 8]: 32 µg/mL
KP-3700 MIC [3]: ≧64 mg/L
PA-7 MIC [4, 9]: ≧64 mg/L
AB-3167 MIC [5, 10]: ≧64 mg/L

C[C@@](CCc1ccc(-c2ccc(C#N)cn2)cc1)(C(=O)NO)S(C)(=O)=O [Example 202]
pIC50 [1, 7]: 9.09
EC-1 MIC ([2]; Escherichia coli EC-1): 8 µg/mL
KP-3700 MIC [3]: 16 µg/mL
PA-7 MIC [4, 14]: 1 µg/mL
AB-3167 MIC [5, 15]: ≧64 mg/L

CC(CCc1ccc(-c2ccc(C(=O)CO)cc2)cc1F)(C(=O)NO)S(C)(=O)=O (stereo not shown) [Example 183]
pIC50 [1, 7]: 9.41
EC-1 MIC [2, 8]: 2 µg/mL
KP-3700 MIC [3]: 4 µg/mL
PA-7 MIC [4, 9]: 2 µg/mL
AB-3167 MIC [5, 10]: ≧64 mg/L

CC(CCc1ccc(-c2ccc(CO)c(F)c2)cc1)(C(=O)NO)S(C)(=O)=O (stereo not shown) [Example 123]
pIC50 [1, 7]: 9.31
EC-1 MIC [2, 8]: 16 µg/mL
KP-3700 MIC [3]: 16 µg/mL
PA-7 MIC [4, 9]: 1 µg/mL
AB-3167 MIC [5, 10]: ≧64 mg/L

CC(CCc1ccc(OCc2ccc(-n3cccn3)cc2)cc1)(C(=O)NO)S(C)(=O)=O (stereo not shown) [Example 304, N-hydroxy-2-methyl-2-(methylsulfonyl)-4-(4-{[4-(1H-pyrazol-1-yl)benzyl]oxy}phenyl)butanamide]
pIC50 [1, 6]: 8.70
MIC ([2]; read-out: EC-1 MIC): 4 µg/mL (≈ 9.02 µM)
KP-3700 MIC [3]: 16 µg/mL
MIC ([4]; Table 3, read-out: PA-7 MIC): 16 µg/mL (≈ 36.1 µM)
MIC ([5]; Table 3, read-out: AB-3167 MIC): 32 µg/mL (≈ 72.1 µM)

CC(CCc1ccc(OCc2cccc(F)c2F)cc1)(C(=O)NO)S(C)(=O)=O (stereo not shown) [Example 247, 4-{4-[(2,3-difluorobenzyl)oxy]phenyl}-N-hydroxy-2-methyl-2-(methylsulfonyl)butanamide]
pIC50 [1, 6]: 9.49
MIC ([2]; read-out: EC-1 MIC): 2 µg/mL (≈ 4.84 µM)
KP-3700 MIC [3]: 16 µg/mL
MIC ([4]; Table 3, read-out: PA-7 MIC): 2 µg/mL (≈ 4.84 µM)
MIC ([5]; Table 3, read-out: AB-3167 MIC): 16 µg/mL (≈ 38.7 µM)

CC(O)C(=O)c1ccc(-c2ccc(CCC(C)(C(=O)NO)S(C)(=O)=O)cc2)cc1 (stereo not shown) [Example 194]
pIC50 [1, 7]: 9.71
EC-1 MIC [2, 8]: 1 µg/mL
KP-3700 MIC [3]: 4 µg/mL
PA-7 MIC [4, 9]: 1 µg/mL
AB-3167 MIC [5, 10]: ≧64 mg/L

CC(CCc1ccc(OCc2nc(-c3ccccc3)no2)cc1)(C(=O)NO)S(C)(=O)=O (stereo not shown) [Example 308, N-hydroxy-2-methyl-2-(methylsulfonyl)-4-{4-[(3-phenyl-1,2,4-oxadiazol-5-yl)methoxy]phenyl}butanamide]
pIC50 [1, 6]: 8.59
MIC ([2]; read-out: EC-1 MIC): 4 µg/mL (≈ 8.98 µM)
KP-3700 MIC [3]: 16 µg/mL
MIC ([4]; Table 3, read-out: PA-7 MIC): 32 µg/mL (≈ 71.8 µM)
MIC ([5]; Table 3, read-out: AB-3167 MIC): ≥ 64 µg/mL

Cc1ccc(F)c(-c2noc(COc3ccc(CCC(C)(C(=O)NO)S(C)(=O)=O)cc3)n2)c1 (stereo not shown) [Example 291, 4-(4-{[3-(2-fluoro-5-methylphenyl)-1,2,4-oxadiazol-5-yl]methoxy}phenyl)-N-hydroxy-2-methyl-2-(methylsulfonyl)butanamide]
pIC50 [1, 6]: 8.03
MIC ([2]; read-out: EC-1 MIC): 16 µg/mL (≈ 33.5 µM)
KP-3700 MIC [3]: ≧64 mg/L
MIC ([4]; Table 3, read-out: PA-7 MIC): ≥ 64 µg/mL
MIC ([5]; Table 3, read-out: AB-3167 MIC): ≥ 64 µg/mL

Cc1oc(-c2cccc(F)c2)nc1COc1ccc(CCC(C)(C(=O)NO)S(C)(=O)=O)cc1 (stereo not shown) [Example 302, 4-(4-{[2-(3-fluorophenyl)-5-methyl-1,3-oxazol-4-yl]methoxy}phenyl)-N-hydroxy-2-methyl-2-(methylsulfonyl)butanamide]
pIC50 [1, 6]: 7.90
MIC ([2]; read-out: EC-1 MIC): 16 µg/mL (≈ 33.6 µM)
KP-3700 MIC [3]: ≧64 mg/L
MIC ([4]; Table 3, read-out: PA-7 MIC): ≥ 64 µg/mL
MIC ([5]; Table 3, read-out: AB-3167 MIC): ≥ 64 µg/mL

CC(CCc1ccc(-c2ccc(C#N)cc2F)cc1)(C(=O)NO)S(C)(=O)=O (stereo not shown) [Example 128]
pIC50 [1, 7]: 9.63
EC-1 MIC [2, 8]: 0.5 µg/mL
KP-3700 MIC [3]: 8 µg/mL
PA-7 MIC [4, 9]: 0.5 µg/mL
AB-3167 MIC [5, 10]: ≧64 mg/L

CC(CCc1ccc(-c2ccc(OCCCO)cc2)cc1)(C(=O)NO)S(C)(=O)=O (stereo not shown) [Example 115]
pIC50 [1, 7]: 9.41
EC-1 MIC [2, 8]: 0.5 µg/mL
KP-3700 MIC [3]: 2 µg/mL
PA-7 MIC [4, 9]: 2 µg/mL
AB-3167 MIC [5, 10]: ≧64 mg/L
